{
  "source": "paper PMC12090809",
  "about": "(Journal of Virology, 2025)",
  "key": {"[1]": {"tested_on": "Env expressed on CH058TF-infected cells", "test": "Binding of anti-CoRBS mAb 17b to CH058TF-infected cells after incubation with plasma from BNM-III-170-treated uninfected RMs (FACS)", "type": "cell-based, HIV-1", "description": "Next, we assessed the ability of the plasma collected from uninfected RMs at various timepoints following BNM-III-170 administration to induce conformational changes in Env expressed on the surface of HIV-1-infected cells. Briefly, plasma was incubated with cells infected with the transmitted/founder virus CH058 (CH058TF) and the binding of the Alexa-Fluor-647-conjugated anti-CoRBS mAb 17b (whose epitope is not exposed on the “closed” Env conformation) to Env expressed on infected cells was measured by FACS (Fig. 1B).\nTo evaluate the functional activity of bioavailable BNM-III-170 in plasma, the plasma from uninfected RMs treated with BNM-III-170 was used to modulate Env conformation at the surface of infected cells. Briefly, 2 days post-infection, CEM.NKr cells infected with CH058TF were incubated with plasma from RMs (1:10 dilution), the Alexa-Fluor 647-conjugated 17b (5 µg/mL), and the AquaVivid viability dye at 37°C for 45 min. As a positive control, infected cells were incubated with 50 µM of BNM-III-170. Infected cells were then identified based on HIV-1 p24 detection as described above."}, "[2]": {"tested_on": "CEM.NKr-CCR5-sLTR-Luc cells infected with SHIV AD8-EO", "type": "cell-based"}, "SHIV AD8-EO": {"tested_on": "SHIV AD8-EO", "test": "Plasma viral loads (RT-qPCR) in SHIV AD8-EO-infected RMs during BNM-III-170 treatment", "type": "in vivo, Macaca mulatta", "description": "Next, we evaluated the ability of BNM-III-170 to reduce viral replication in these animals, measuring plasma viral loads (PVLs) at multiple timepoints during and immediately following each BNM-III-170 treatment cycle. PVLs declined by 0.92 logs in animal 14C056 following the 3 × 36 mg/kg, 3-day interval treatment cycle (between 0 h of the first dose and 9 days post third dose). […] Importantly, given the small number of animals and absence of untreated controls, it is difficult to determine if the observed reduction in PVLs in animal 14C056 was due to BNM-III-170 treatment or to the natural course of SHIV AD8 EO-infection. This highlights the need for additional, larger studies that include an untreated control arm to more accurately determine the virologic impact of BNM-III-170 on SHIV in vivo.\nPlasma SHIV viral loads (SHIV-RNA copies/mL) were determined as previously described ([61]) using quantitative reverse transcription PCR (RT-qPCR) assays with a limit of detection of 60 copies/mL."}, "[3]": {"settings": "in vivo, 12 mg/kg", "quoted_text": "BNM-III-170 levels in plasma from rhesus macaque were determined by high-performance liquid chromatography-tandem mass spectrometry (HPLC-MS/MS). Briefly, BNM-III-170 was extracted from plasma using protein precipitation. A Thermo Scientific TSQ Quantiva triple quadrupole mass spectrometer was interfaced with the Thermo Scientific Ultimate 3000XRS UHPLC system using a heated electrospray ion source (HESI). MS detection was performed in positive ion mode, using multiple reaction monitoring (MRM). The precursor-ion reactions for BNM-III-170 and IS were set to 447.3 → [226.1 + 357.1] and 262.0 → 139.1, respectively. Chromatographic separation was achieved on a Thermo Scientific Accucore RP-MS analytical column (100 × 2.1 mm I.D., 2.6 mm) maintained at 40°C using isocratic elution, which consisted of acetonitrile and 10 mM ammonium formate in water (pH 3.0) at a ratio of 20:80, respectively. The flow rate was fixed at 300 µL/min. Acquisition and analysis of data were conducted using the Xcalibur 4.0 software. Each calibration curve was comprised of a double blank (matrix without analyte or internal standard), zero standard, and eight calibration points. Calibration curves were computed from the equation y = ax + b, based on the weight of the calibration lines created from the peak-area ratios of the drug relative to the internal standard."}, "[4]": {"test": "Plasma pharmacokinetics of BNM-III-170 in SHIV AD8-EO-infected RMs (HPLC-MS/MS)", "type": "in vivo, Macaca mulatta", "description": "Plasma concentrations of BNM-III-170 in SHIV-infected animals were measured via liquid chromatography and mass spectrometry at several timepoints following each BNM-III-170 dose for all treatment cycles."}, "[5]": {"tested_on": "CH058TF-infected CEM.NKr cells", "type": "cell-based, HIV-1", "description": "To assess the ability of bioavailable BNM-III-170 to induce conformational changes in HIV-1 Env, we assessed the capacity of the Abs naturally elicited in these infected RMs to recognize HIV-1-infected cells before and after BNM-III-170 administration. Plasma from treated animals was incubated with CH058TF-infected CEM.NKr cells, and the ability to recognize infected cells was measured by flow cytometry. […] Importantly, as observed in uninfected RMs, plasma levels of BNM-III-170 in treated, SHIV-infected RMs closely mirrored the kinetic curves for plasma binding.\nCell surface staining was performed at 48 h post-infection. Mock-infected or HIV-1-infected CEM.NKr or primary CD4+ T cells were incubated for 45 min at 37°C with anti-Env mAbs (5 µg/mL), plasma from PWH (1:1,000 dilution), or plasma from infected RMs (1:500). When indicated, antibody/plasma incubation was done in the presence of 50 µM of BNM-III-170, or equivalent amounts of DMSO. To evaluate the capacity of plasma from SHIV-AD8-EO-infected RMs treated with BNM-III-170 to recognize HIV-1-infected cells, a 1:10 plasma dilution was used. Cells were then washed twice with PBS and stained with the appropriate Alexa Fluor 647-conjugated secondary antibody (2 µg/mL) for 20 min and the viability dye AquaVivid (Thermo Fisher Scientific) at room temperature. […]"}},
  "note": "Read-outs that look alike come from different tables or passages of the source.",
  "data": [
    {"smiles": "CNCc1ccc2c(c1)C[C@H](CN=C(N)N)[C@H]2NC(=O)C(=O)Nc1ccc(Cl)c(F)c1.O=C(O)C(F)(F)F.O=C(O)C(F)(F)F", "note": "[BNM-III-170]", "values": [
      {"measurement": "association between 17b binding and BNM-III-170 plasma concentrations", "setting": "[1]; each dose and all combined doses, Spearman correlation", "result": "positive correlation"},
      {"measurement": "effect on 17b binding to CH058TF-infected cells", "setting": "[1]; plasma from uninfected RMs, all tested doses (3–36 mg/kg SQ)", "result": "consistently shown to increase 17b binding"},
      {"measurement": "duration of residual 17b activity", "setting": "[1]; plasma from uninfected RMs, highest tested dose (36 mg/kg SQ)", "result": "up to 8 h"},
      {"measurement": "binding of plasma from PWH to infected cells", "setting": "[2]", "result": "enhance binding of plasma from PWH"},
      {"measurement": "decline in plasma viral loads (PVLs)", "setting": "SHIV AD8-EO; animal 14C056, 3 × 36 mg/kg SQ, 3-day interval, between 0 h of first dose and 9 days post third dose, no untreated controls", "result": 0.92, "unit": "logs"},
      {"measurement": "change in plasma viral loads (PVLs)", "setting": "SHIV AD8-EO; animals 14C013, RYj17, 34901, following BNM-III-170 treatments", "result": "no similar changes in PVLs were observed"},
      {"measurement": "Cmax", "setting": "[3]", "result": 15300, "unit": "ng/mL"},
      {"measurement": "Cmax", "setting": "[4]; SHIV AD8-EO-infected RMs, following first dose of each treatment cycle (24 or 36 mg/kg SQ)", "result": "4100 to 12800", "unit": "ng/mL"},
      {"measurement": "plasma BNM-III-170 level between doses", "setting": "[4]; SHIV-infected RMs, 36 mg/kg once every 3 days", "result": "below the limit of detection"},
      {"measurement": "plasma level 6 h after each dose", "setting": "[4]; SHIV-infected RMs, all treatment cycles, generally", "result": "> 675", "unit": "ng/mL"},
      {"measurement": "association of BNM-III-170 plasma concentrations with plasma binding to infected cells", "setting": "[5]; each treatment cycle, Spearman correlation", "result": "correlated with plasma binding to infected cells"},
      {"measurement": "time post-administration up to which RM plasma efficiently recognized infected cells", "setting": "[5]; plasma from treated SHIV-infected RMs, depending on the dose used", "result": "up to 6 h"}
    ]}
  ]
}
